Measured values as given in ChEMBL document CHEMBL1125926, “Anesthetic steroid mobility in model membrane preparations as examined by high-resolution 1H and 2H NMR spectroscopy” (1991).
Active and inactive are the calls of the source. No cut-off for these calls is given here.

experiment: Compound was evaluated for anesthetic activity (lowest dose producing loss of righting reflex); type: functional

Question: With CC(=O)[C@H]1CC[C@H]2[C@@H]3CC[C@H]4C[C@H](O)CC[C@]4(C)[C@H]3CC[C@]12C [BREXANOLONE] as the molecule, how does the Activity read?
Answer: Its Activity is 3.1 mg/kg.

Question: Which Activity does the source give for CC(=O)C1CC[C@H]2[C@@H]3CC[C@@H]4C[C@H](O)CCC4(C)[C@H]3CCC12C (some centres not stated) here?
Answer: Its Activity is 3.1 mg/kg.

Question: For CC(=O)C1CC[C@H]2[C@@H]3CC[C@H]4C[C@@H](O)CCC4(C)[C@H]3CCC12C (some centres not stated), which Activity is on record?
Answer: The Activity was 100 mg/kg.

Question: With CC(=O)[C@H]1CC[C@H]2[C@@H]3CC[C@H]4C[C@H](O)CC[C@]4(C)[C@H]3C(=O)C[C@]12C [ALFAXALONE] as the molecule, how does the Activity read?
Answer: The Activity was 3.1 mg/kg.

Question: Which Activity does the source give for CC(=O)[C@H]1CC[C@H]2[C@@H]3CC[C@@H]4C[C@H](O)CC[C@]4(C)[C@H]3C(=O)C[C@]12C [RENANOLONE] here?
Answer: Its Activity is 6.3 mg/kg.

Question: For CC(=O)C1CC[C@H]2[C@@H]3CC[C@@H]4C[C@@H](O)CCC4(C)[C@H]3CCC12C (some centres not stated), which Activity is on record?
Answer: The Activity was 25 mg/kg.

experiment: Compound was evaluated for anesthetic activity (lowest dose producing loss of righting reflex); IA=Inactive; type: functional

Question: For CC(=O)C1=CCC2C3CC[C@H]4C[C@H](O)CCC4(C)C3C(=O)CC12C (some centres not stated), which Activity is on record?
Answer: The Activity was “inactive”.
